In ChEMBL document CHEMBL3885881, “DrugMatrix”:

Species: Rattus norvegicus
Experiment: DrugMatrix - Regimen: Daily Repeat
Assay type: toxicity, organism-based, Sprague-Dawley
Set-up: regimen Daily Repeat, gender Male, age 6-8 weeks
Settings: in vivo, po, 800 mg/kg, route oral GAVAGE, dose level High, vehicle .5 % CMC; for BASOPHIL / EOSINOPHIL / ERYTHROCYTE COUNT / HEMATOCRIT / HEMOGLOBIN / LEUKOCYTE COUNT / LYMPHOCYTE / MEAN CORPUSCULAR HEMOGLOBIN / MEAN CORPUSCULAR HEMOGLOBIN CONCENTRATION / MEAN CORPUSCULAR VOLUME / MONOCYTE / NEUTROPHIL / PLATELET COUNT: tissue Blood; for ALANINE AMINOTRANSFERASE / ALBUMIN / ALKALINE PHOSPHATASE / ASPARTATE AMINOTRANSFERASE / BLOOD UREA NITROGEN / CARBON DIOXIDE / CHLORIDE / CHOLESTEROL / CREATINE PHOSPHOKINASE / CREATININE / GLUCOSE / LACTATE DEHYDROGENASE / LIPASE / PHOSPHORUS / POTASSIUM / SODIUM / TOTAL BILIRUBIN / TOTAL PROTEIN / URIC ACID: tissue Plasma

SMILES: Oc1ccc(O)cc1 [HYDROQUINONE]
- BASOPHIL (72 h, time 3 day): 0.25%
- EOSINOPHIL (72 h, time 3 day): 0.45%
- ERYTHROCYTE COUNT (72 h, time 3 day): 6.72 x10E6/uL
- HEMATOCRIT (72 h, time 3 day): 44.05%
- HEMOGLOBIN (72 h, time 3 day): 14.5 G/DL
- LEUKOCYTE COUNT (72 h, time 3 day): 7.7 x10E3/uL
- LYMPHOCYTE (72 h, time 3 day): 89.1%
- MEAN CORPUSCULAR HEMOGLOBIN (72 h, time 3 day): 21.6 pg
- MEAN CORPUSCULAR HEMOGLOBIN CONCENTRATION (72 h, time 3 day): 32.9 G/DL
- MEAN CORPUSCULAR VOLUME (72 h, time 3 day): 65.5 fL
- MONOCYTE (72 h, time 3 day): 1.5%
- NEUTROPHIL (72 h, time 3 day): 7.45%
- PLATELET COUNT (72 h, time 3 day): 1149.5 x10E3/uL
- ALANINE AMINOTRANSFERASE (72 h, time 3 day): 48 u/L
- ALBUMIN (72 h, time 3 day): 4.2 G/DL
- ALKALINE PHOSPHATASE (72 h, time 3 day): 309.5 u/L
- ASPARTATE AMINOTRANSFERASE (72 h, time 3 day): 52 u/L
- BLOOD UREA NITROGEN (72 h, time 3 day): 15.5 mg/dL
- CARBON DIOXIDE (72 h, time 3 day): 23 mmol/L
- CHLORIDE (72 h, time 3 day): 107.5 MEQ/L
- CHOLESTEROL (72 h, time 3 day): 80.5 mg/dL
- CREATINE PHOSPHOKINASE (72 h, time 3 day): 183 u/L
- CREATININE (72 h, time 3 day): 0.45 mg/dL
- GLUCOSE (72 h, time 3 day): 164 mg/dL
- LACTATE DEHYDROGENASE (72 h, time 3 day): 102 u/L
- LIPASE (72 h, time 3 day): 23.5 u/L
- PHOSPHORUS (72 h, time 3 day): 13.75 mg/dL
- POTASSIUM (72 h, time 3 day): 6.4 MEQ/L
- SODIUM (72 h, time 3 day): 150 MEQ/L
- TOTAL BILIRUBIN (72 h, time 3 day): 0.3 mg/dL
- TOTAL PROTEIN (72 h, time 3 day): 6.5 G/DL
- URIC ACID (72 h, time 3 day): 2.25 mg/dL
- BASOPHIL (120 h, time 5 day): 0.2%
- EOSINOPHIL (120 h, time 5 day): 0.3%
- ERYTHROCYTE COUNT (120 h, time 5 day): 6.45 x10E6/uL
- HEMATOCRIT (120 h, time 5 day): 41.5%
- HEMOGLOBIN (120 h, time 5 day): 13.7 G/DL
- LEUKOCYTE COUNT (120 h, time 5 day): 10.53 x10E3/uL
- LYMPHOCYTE (120 h, time 5 day): 89%
- MEAN CORPUSCULAR HEMOGLOBIN (120 h, time 5 day): 21.3 pg
- MEAN CORPUSCULAR HEMOGLOBIN CONCENTRATION (120 h, time 5 day): 33.1 G/DL
- MEAN CORPUSCULAR VOLUME (120 h, time 5 day): 64.4 fL
- MONOCYTE (120 h, time 5 day): 1.6%
- NEUTROPHIL (120 h, time 5 day): 6.2%
- PLATELET COUNT (120 h, time 5 day): 1513 x10E3/uL
- ALANINE AMINOTRANSFERASE (120 h, time 5 day): 36.5 u/L
- ALBUMIN (120 h, time 5 day): 4.2 G/DL
- ALKALINE PHOSPHATASE (120 h, time 5 day): 411 u/L
- ASPARTATE AMINOTRANSFERASE (120 h, time 5 day): 55 u/L
- BLOOD UREA NITROGEN (120 h, time 5 day): 15.5 mg/dL
- CARBON DIOXIDE (120 h, time 5 day): 27 mmol/L
- CHLORIDE (120 h, time 5 day): 105 MEQ/L
- CHOLESTEROL (120 h, time 5 day): 70.5 mg/dL
- CREATINE PHOSPHOKINASE (120 h, time 5 day): 206 u/L
- CREATININE (120 h, time 5 day): 0.25 mg/dL
- GLUCOSE (120 h, time 5 day): 163 mg/dL
- LACTATE DEHYDROGENASE (120 h, time 5 day): 87.5 u/L
- LIPASE (120 h, time 5 day): 20 u/L
- PHOSPHORUS (120 h, time 5 day): 12.6 mg/dL
- POTASSIUM (120 h, time 5 day): 6.1 MEQ/L
- SODIUM (120 h, time 5 day): 148 MEQ/L
- TOTAL BILIRUBIN (120 h, time 5 day): 0.55 mg/dL
- TOTAL PROTEIN (120 h, time 5 day): 6.5 G/DL
- URIC ACID (120 h, time 5 day): 2.05 mg/dL
- BASOPHIL ([…], time 14 day): 0.8%
- EOSINOPHIL ([…], time 14 day): 0.2%
- ERYTHROCYTE COUNT ([…], time 14 day): 6.87 x10E6/uL
- HEMATOCRIT ([…], time 14 day): 42.85%
- HEMOGLOBIN ([…], time 14 day): 14.03 G/DL
- LEUKOCYTE COUNT ([…], time 14 day): 14.3 x10E3/uL
- LYMPHOCYTE ([…], time 14 day): 83.92%
- MEAN CORPUSCULAR HEMOGLOBIN ([…], time 14 day): 20.45 pg
- MEAN CORPUSCULAR HEMOGLOBIN CONCENTRATION ([…], time 14 day): 32.83 G/DL
- MEAN CORPUSCULAR VOLUME ([…], time 14 day): 62.4 fL
- MONOCYTE ([…], time 14 day): 1.9%
- NEUTROPHIL ([…], time 14 day): 11.55%
- PLATELET COUNT ([…], time 14 day): 1262 x10E3/uL
- ALANINE AMINOTRANSFERASE ([…], time 14 day): 50 u/L
- ALBUMIN ([…], time 14 day): 4.45 G/DL
- ALKALINE PHOSPHATASE ([…], time 14 day): 349.75 u/L
- ASPARTATE AMINOTRANSFERASE ([…], time 14 day): 70.25 u/L
- BLOOD UREA NITROGEN ([…], time 14 day): 16.25 mg/dL
- CARBON DIOXIDE ([…], time 14 day): 30.25 mmol/L
- CHLORIDE ([…], time 14 day): 103.5 MEQ/L
- CHOLESTEROL ([…], time 14 day): 84.5 mg/dL
- CREATINE PHOSPHOKINASE ([…], time 14 day): 254.25 u/L
- CREATININE ([…], time 14 day): 0.4 mg/dL
- GLUCOSE ([…], time 14 day): 161.5 mg/dL
- LACTATE DEHYDROGENASE ([…], time 14 day): 60.75 u/L
- LIPASE ([…], time 14 day): 17.25 u/L
- PHOSPHORUS ([…], time 14 day): 12.07 mg/dL
- POTASSIUM ([…], time 14 day): 6.7 MEQ/L
- SODIUM ([…], time 14 day): 150.25 MEQ/L
- TOTAL BILIRUBIN ([…], time 14 day): 0.55 mg/dL
- TOTAL PROTEIN ([…], time 14 day): 6.97 G/DL
- URIC ACID ([…], time 14 day): 1 mg/dL
